Measurements reported in patent US20230092495A1, “SOLID FORMS OF TEZACAFTOR AND PROCESSES FOR THE PREPARATION THEREOF” (QUÍMICA SINTÉTICA, S.A., priority 2020, published 2023).

Key:
[1] = Stability of amorphous tezacaftor, polymorphic stability by XRPD; assay type: physicochemical
Description: (§1) Unless otherwise indicated, in the context of the present invention a range of values indicated for a certain parameter, for example the weight of a component in a mixture, includes the upper and the lower limits of the range, e.g. if the content in weight, or in volume, of a component A in a mixture is indicated as “X to Y”, the content of A can be X, Y or any of the intermediate values. By “polymorphically stable” it is meant that the crystalline form B and the amorphous form of the present invention, when stored (I) at 70° C. under reduced pressure for at least 1 hour (preferably for 5 hours, more preferably for 10 hours, even more preferably for 12 hours), (II) at 60° C. for at least 1 day (preferably for 5 days, more preferably for 10 days, even more preferably for 15 days), (III) at 40° C. and 75% RH for at least 1 day (preferably for 5 days, more preferably for 10 days, even more preferably for 15 days), and/or (IV) at 25-30° C. and 80% RH for at least 1 day (preferably for 5 days, more preferably for 10 days, even more preferably for 15 days), show no signs of transformation into a different crystalline tezacaftor (e.g. Form A) as evaluated by the absence of peaks in an X-ray powder diffractogram (XRPD).
(§2) XRPD analyses were performed at 20-30° C. by means of a theta/theta vertical scan Bruker AXS D8 Advance high-performance diffractometer. The instrument was equipped with a Cu-Kα X-ray tube operating at 40 kV/40 mA and generating radiation having λ=1.5418 Å. The detector was a linear Lynxeye XE-T position sensitive set at 250 mm from the sample. Powder samples were deposited in the 20 mm×0.5 mm hollow of the sample holder, consisting of a quartz monocrystal zero background plate. A mild grinding of the sample in an agate mortar may be needed to obtain a suitable fine powder. Diffraction data were collected applying the following conditions: angular range 2-40° 2-theta, 0.02°/step scan and 1 second acquisition time. The instrument calibration was verified by means of a NIST SRM 1976b. Data acquisition was performed by means of Bruker Diffraction Measurement Center software. Data elaboration was performed by means of Crystal Impact Match!.
The amorphous tezacaftor, prepared as described in Examples 3 to 5, was maintained at 70° C. under a reduced pressure for 12 hours.
The amorphous tezacaftor, prepared as described in Examples 3 to 5, was maintained, in a closed vial, at 60° C. for 15 days.
The amorphous tezacaftor, prepared as described in Examples 3 to 5, was maintained, in an open vial, at 40° C. and 75% RH for 15 days.
The amorphous tezacaftor, prepared as described in Examples 3 to 5, was maintained, in an open vial, at 25-30° C. and 80% RH for 15 days.

[2] = Stressed stability of crystalline tezacaftor form B, polymorphic stability by XRPD; assay type: physicochemical; details: 4 weeks
Description: as §1
as §2, with “Data acquisition was performed by means of Bruker Diffraction Measurement Center software. Data elaboration was performed by means of Crystal Impact Match!.” left out

CC(C)(CO)c1cc2cc(NC(=O)C3(c4ccc5c(c4)OC(F)(F)O5)CC3)c(F)cc2n1C[C@@H](O)CO [amorphous tezacaftor, (R)-1-(2,2-difluorobenzo[d][1,3]dioxol-5-yl)-N-(1-(2,3-dihydroxypropyl)-6-fluoro-2-(1-hydroxy-2-methylpropan-2-yl)-1H-indol-5-yl)cyclopropane-1-carboxamide]
XRPD analysis after storage (polymorphic stability) ([1]; 25-30° C. and 80% RH, open vial, 15 days): XRPD spectrum corresponding to the one obtained in example 3 | XRPD analysis after storage (polymorphic stability) ([1]; 40° C. and 75% RH, open vial, 15 days): XRPD spectrum corresponding to the one obtained in example 3 | XRPD analysis after storage (polymorphic stability) ([1]; 60° C., closed vial, 15 days): XRPD spectrum corresponding to the one obtained in example 3 | XRPD analysis after storage (polymorphic stability) ([1]; 70° C. under reduced pressure, 12 hours): XRPD spectrum corresponding to the one obtained in example 3

CC(C)(CO)c1cc2cc(NC(=O)C3(c4ccc5c(c4)OC(F)(F)O5)CC3)c(F)cc2n1C[C@@H](O)CO [crystalline tezacaftor, (R)-1-(2,2-difluorobenzo[d][1,3]dioxol-5-yl)-N-(1-(2,3-dihydroxypropyl)-6-fluoro-2-(1-hydroxy-2-methylpropan-2-yl)-1H-indol-5-yl)cyclopropane-1-carboxamide]
XRPD analysis after storage (polymorphic stability) ([2]; 20-25° C., 80% relative humidity, open vial): XRPD diffractogram corresponding to the one obtained in example 1 | XRPD analysis after storage (polymorphic stability) ([2]; 40° C. and 75% RH, open vial): XRPD diffractogram corresponding to that obtained in example 1 | XRPD analysis after storage (polymorphic stability) ([2]; 60° C., closed vial): XRPD diffractogram corresponded to that obtained from the sample of example 1
